Assay results taken from publication PMC6691788, “Design and synthesis of phthalazine-based compounds as potent anticancer agents with potential antiangiogenic activity via VEGFR-2 inhibition” (Journal of Enzyme Inhibition and Medicinal Chemistry, 2019).

What was measured:
Assay in all cases: NCI 60 cell panel SRB screen
HL-60(TB) = type: cell-based; settings: Homo sapiens; for activity at 10 µM: single dose 10 μM, read-out: percent cell growth promotion
MOLT-4 = type: cell-based; settings: Homo sapiens; for activity at 10 µM: MOLT-4, single dose 10 μM, read-out: percent cell growth promotion
A549/ATCC = type: cell-based; settings: Homo sapiens; for activity at 10 µM: single dose 10 μM, read-out: percent cell growth promotion
HOP-92 = type: cell-based; settings: Homo sapiens; for activity at 10 µM: HOP-92, single dose 10 μM, read-out: percent cell growth promotion
NCI-H460 = type: cell-based; settings: Homo sapiens; for activity at 10 µM: NCI-H460, single dose 10 μM, read-out: percent cell growth promotion
HCC-2998 = type: cell-based; settings: Homo sapiens; for activity at 10 µM: HCC-2998, single dose 10 μM, read-out: percent cell growth promotion
HT29 = type: cell-based; settings: Homo sapiens, HT-29; for activity at 10 µM: HT29, single dose 10 μM, read-out: percent cell growth promotion
KM12 = type: cell-based; settings: Homo sapiens; for activity at 10 µM: KM12, single dose 10 μM, read-out: percent cell growth promotion
SF-268 = type: cell-based; settings: Homo sapiens; for activity at 10 µM: SF-268, single dose 10 μM, read-out: percent cell growth promotion
UACC-257 = type: cell-based; settings: Homo sapiens; for activity at 10 µM: UACC-257, read-out: percent cell growth promotion
OVCAR-3 = type: cell-based; settings: Homo sapiens; for activity at 10 µM: OVCAR-3, single dose 10 μM, read-out: percent cell growth promotion
OVCAR-8 = type: cell-based; settings: Homo sapiens; for activity at 10 µM: OVCAR-8, single dose 10 μM, read-out: percent cell growth promotion
NCI/ADR-RES = type: cell-based; settings: Homo sapiens; for activity at 10 µM: single dose 10 μM, read-out: percent cell growth promotion
SK-OV-3 = type: cell-based; settings: Homo sapiens; for activity at 10 µM: SK-OV-3, single dose 10 μM, read-out: percent cell growth promotion
RXF 393 = type: cell-based; settings: Homo sapiens; for activity at 10 µM: RXF 393, single dose 10 μM, read-out: percent cell growth promotion
TK-10 = type: cell-based, human; settings: Homo sapiens; TK-10, single dose 10 μM; read-out: percent cell growth promotion
UO-31 = type: cell-based; settings: Homo sapiens; for activity at 10 µM: UO-31, single dose 10 μM, read-out: percent cell growth promotion
PC-3 = type: cell-based; settings: Homo sapiens; for activity at 10 µM: PC-3, single dose 10 μM, read-out: percent cell growth promotion
MDA-MB-468 = type: cell-based; settings: Homo sapiens; for activity at 10 µM: MDA-MB-468, MDA-MBA-468, single dose 10 μM, read-out: percent cell growth promotion
Procedure: The human tumor cell lines of the cancer-screening panel were grown in RPMI 1640 medium containing 5% fetal bovine serum and […] L-glutamine. For a typical screening experiment, cells are inoculated into 96 well microtiter plates in 100 ml at plating densities ranging from 5000 to 40,000 cells/well depending on the doubling time of individual cell lines. After cell inoculation, the microtiter plates are incubated at 37 °C, 5% CO2, 95% air and 100%
relative humidity for 24 h prior to addition of experimental drugs. After 24 h, two plates of each cell line are fixed in situ with TCA, to represent a measurement of the cell population for each cell line at the time of drug addition (Tz). Experimental drugs are dissolved in dimethyl sulfoxide at 400-fold the desired final maximum test concentration and stored frozen prior to use. At the time of drug addition, an aliquot of frozen concentrate is thawed and diluted to twice the desired final maximum test concentration with complete medium containing […] Gentamicin. Additional four, 10-fold or ½log serial dilutions are made to provide a total of five drug concentrations plus control. Aliquots of […] of these different drug dilutions are added to the appropriate microtiter wells already containing 100 ml of medium, resulting in the required final drug concentrations. Following drug addition, the plates are incubated for an additional 48 h at 37 °C, 5% CO2, 95% air, and 100% relative humidity. For adherent cells, the assay is terminated by the addition of cold TCA. Cells are fixed in situ by the gentle addition of […] of cold 50% (w/v) TCA (final concentration,10% TCA) and incubated for 60 min at 4 °C. The supernatant is discarded, and the plates are washed five times with tap water and air dried. Sulforhodamine B (SRB) solution (100 ml) at 0.4% (w/v) in 1% acetic acid is added to each well, and plates are incubated for 10 min at room temperature. After staining, unbound dye is removed by washing five times with 1% acetic acid and the plates are air dried. Bound stain is subsequently dissolved with 10 μM trizma base, and the absorbance is read on an automated plate reader at a wavelength of 515 nm. For suspension cells, the methodology is the same except that the assay is terminated by fixing settled cells at the bottom of the wells by gently adding […] of 80% TCA (final concentration, 16% TCA).
Using the seven absorbance measurements [time zero, (Tz), control growth, (C), and test growth in the presence of drug at the five concentration levels (Ti)], the percentage growth is calculated at each of the drug concentrations levels. Percentage growth inhibition is calculated as: [(Ti -Tz)/(C - Tz)] x 100 for concentrations for which Ti>/ ¼ Tz and [(Ti -Tz) / Tz] x100 for concentrations for which Ti <Tz.
Three dose response parameters are calculated for each experimental agent. Growth inhibition of 50% (GI50) is calculated from [(Ti -Tz)/(C - Tz)] x 100 =50, which is the drug concentration resulting in a 50% reduction in the net protein increase (as measured by SRB staining) in control cells during the drug incubation. The drug concentration resulting in total growth inhibition (TGI) is calculated from Ti ¼ Tz. The LC50 (concentration of drug resulting in a 50% reduction in the measured protein at the end of the drug treatment as compared to that at the beginning) indicating a net loss of cells following treatment is calculated from [(Ti - Tz) / Tz] x100 = -50. Values are calculated for each of these three parameters if the level of activity is reached; however, if the effect is not reached or is exceeded, the value for that parameter is expressed as greater or less than the maximum or minimum concentration tested.

[1] = 5 log dose, 48 h, read-out: LC50 (the source's name)

## COc1cccc(NCc2nnc(Nc3ccc(Cl)cc3)c3ccccc23)c1 [Compound 16d, N-(4-Chlorophenyl)-4-((3-methoxyphenylamino)methyl)phthalazin-1-amine]
HL-60(TB); 5 log dose
  GI50: 3.78 µM
  IC (TGI): 13.1 µM
HL-60(TB); [1]
  CC50: > 25 µM
HL-60(TB)
  activity at 10 µM: -27.1%
MOLT-4; MOLT-4, 5 log dose
  GI50: 1.1 µM
  IC (TGI): 7.57 µM
MOLT-4; MOLT-4, 5 log dose, 48 h, read-out: LC50 (the source's name)
  CC50: > 25 µM
MOLT-4
  activity at 10 µM: -27.2%
A549/ATCC; 5 log dose
  GI50: 1.93 µM
  IC (TGI): 9.42 µM
A549/ATCC; 5 log dose, 48 h
  LC50 (concentration killing 50% of cells): > 25 µM
A549/ATCC
  activity at 10 µM: 2.56%
HOP-92; HOP-92, 5 log dose
  GI50: 0.32 µM
  IC (TGI): 2.91 µM
HOP-92; HOP-92, 5 log dose, 48 h, read-out: LC50 (the source's name)
  CC50: > 25 µM
HOP-92
  activity at 10 µM: -32.8%
NCI-H460; NCI-H460, 5 log dose
  GI50: 2.69 µM
  IC (TGI): 7.15 µM
NCI-H460; NCI-H460, 5 log dose, 48 h
  LC50 (concentration causing 50% cell kill): 19 µM
NCI-H460
  activity at 10 µM: 0.1%
HCC-2998; HCC-2998, 5 log dose
  GI50: 3.44 µM
  IC (TGI): 8.79 µM
HCC-2998; HCC-2998, 5 log dose, 48 h
  LC50 (50% lethal concentration): 22.5 µM
HCC-2998
  activity at 10 µM: 2.79%
HT29; HT29, 5 log dose
  GI50: 0.34 µM
  IC (TGI): 3.62 µM
HT29; HT29, 5 log dose, 48 h, read-out: LC50 (the source's name)
  CC50: 12 µM
HT29
  activity at 10 µM: -21%
KM12; KM12, 5 log dose
  GI50: 0.13 µM
  IC (TGI): 6.52 µM
KM12; KM12, 5 log dose, 48 h, read-out: LC50 (the source's name)
  CC50: 18.6 µM
KM12
  activity at 10 µM: -24.9%
SF-268; SF-268, 5 log dose
  GI50: 2.05 µM
  IC (TGI): 10.5 µM
SF-268; SF-268, 5 log dose, 48 h, read-out: LC50 (the source's name)
  CC50: > 25 µM
SF-268
  activity at 10 µM: 2.52%
UACC-257; UACC-257
  GI50: 2.04 µM
UACC-257; UACC-257, read-out: TGI
  IC (TGI): 5.28 µM
UACC-257
  activity at 10 µM: -39.7%
UACC-257; UACC-257, 5 log dose, 48 h, read-out: LC50 (the source's name)
  CC50: 11.6 µM
OVCAR-3; OVCAR-3, 5 log dose
  GI50: 1.64 µM
  IC (TGI): 10 µM
OVCAR-3; OVCAR-3, 5 log dose, 48 h, read-out: LC50 (the source's name)
  CC50: > 25 µM
OVCAR-3
  activity at 10 µM: -53.6%
OVCAR-8; OVCAR-8, 5 log dose
  GI50: 3.61 µM
  IC (TGI): 14.7 µM
OVCAR-8; OVCAR-8, 5 log dose, 48 h, read-out: LC50 (the source's name)
  CC50: > 25 µM
OVCAR-8
  activity at 10 µM: 3.02%
NCI/ADR-RES; 5 log dose
  GI50: 2.55 µM
  IC (TGI): > 25 µM
NCI/ADR-RES; [1]
  CC50: > 25 µM
NCI/ADR-RES
  activity at 10 µM: -5.42%
SK-OV-3; SK-OV-3, 5 log dose
  GI50: 1.13 µM
  IC (TGI): 8.19 µM
SK-OV-3; SK-OV-3, 5 log dose, 48 h, read-out: LC50 (the source's name)
  CC50: > 25 µM
SK-OV-3
  activity at 10 µM: -11.9%
RXF 393; RXF 393, 5 log dose
  GI50: 2.16 µM
  IC (TGI): 6.11 µM
RXF 393; RXF 393, 5 log dose, 48 h, read-out: LC50 (the source's name)
  CC50: 15.9 µM
RXF 393
  activity at 10 µM: -11.6%
TK-10
  activity at 10 µM: -40.9%
UO-31; UO-31, 5 log dose
  GI50: 0.6 µM
  IC (TGI): 5.28 µM
UO-31; UO-31, 5 log dose, 48 h, read-out: LC50 (the source's name)
  CC50: > 25 µM
UO-31
  activity at 10 µM: -42.5%
PC-3; PC-3, 5 log dose
  GI50: 1.19 µM
  IC (TGI): 9.33 µM
PC-3; PC-3, 5 log dose, 48 h, read-out: LC50 (the source's name)
  CC50: > 25 µM
PC-3
  activity at 10 µM: -13.6%
MDA-MB-468
  activity at 10 µM: -21.9%
MDA-MB-468; MDA-MB-468, 5 log dose
  GI50: 1.05 µM
  IC (TGI): 4.73 µM
MDA-MB-468; MDA-MB-468, 5 log dose, 48 h, read-out: LC50 (the source's name)
  CC50: 19.5 µM

## Cc1nnc(N2CCN(c3ccccc3F)CC2)c2ccccc12 [Compound 8h, 1–(4-(2-Fluorophenyl)piperazin-1-yl)-4-methylphthalazine]
HL-60(TB)
  activity at 10 µM: 110%
MOLT-4
  activity at 10 µM: 102%
A549/ATCC
  activity at 10 µM: 89%
HOP-92
  activity at 10 µM: 112%
NCI-H460
  activity at 10 µM: 101%
HCC-2998
  activity at 10 µM: 101%
HT29
  activity at 10 µM: 90%
KM12
  activity at 10 µM: 113%
SF-268
  activity at 10 µM: 110%
UACC-257
  activity at 10 µM: 95.3%
OVCAR-3
  activity at 10 µM: 110%
OVCAR-8
  activity at 10 µM: 95.3%
NCI/ADR-RES
  activity at 10 µM: 96.9%
SK-OV-3
  activity at 10 µM: 105%
RXF 393
  activity at 10 µM: 99.8%
TK-10
  activity at 10 µM: 88.7%
UO-31
  activity at 10 µM: 95.9%
PC-3
  activity at 10 µM: 99%
MDA-MB-468
  activity at 10 µM: 84.8%

## O=C(Nc1ccc(Cl)cc1)Nc1ccc(Oc2nnc(Cl)c3ccccc23)cc1 [Compound 13b, 1–(4-Chlorophenyl)-3–(4-(4-chlorophthalazin-1-yloxy)phenyl)urea]
HL-60(TB)
  activity at 10 µM: 67.3%
A549/ATCC
  activity at 10 µM: 78.2%
HOP-92
  activity at 10 µM: 104%
NCI-H460
  activity at 10 µM: 98.1%
HCC-2998
  activity at 10 µM: 115%
HT29
  activity at 10 µM: 95.8%
KM12
  activity at 10 µM: 84.5%
SF-268
  activity at 10 µM: 85.8%
UACC-257
  activity at 10 µM: 89.9%
OVCAR-3
  activity at 10 µM: 85.4%
OVCAR-8
  activity at 10 µM: 86%
NCI/ADR-RES
  activity at 10 µM: 83.6%
SK-OV-3
  activity at 10 µM: 88.6%
RXF 393
  activity at 10 µM: 99.7%
TK-10
  activity at 10 µM: 109%
UO-31
  activity at 10 µM: 53.9%
PC-3
  activity at 10 µM: 67.8%
MDA-MB-468
  activity at 10 µM: 84.9%
